Reference: patent publication US9834521B2, “Choline kinase inhibitors” (ARIAD Pharmaceuticals, Inc., priority 2013, dated 2017)
pIC50, pKd: −log10 of the molar value. Like-named read-outs stand apart in the source and are kept apart here.

Assays:
[1] = target: T1, truncated form of human Choline kinase α1 that includes residues 75-457 (Homo sapiens, UniProt P35790); assay: Kinase Assay, coupled (ATP regeneration) LDH/PK assay, NADH absorbance; assay type: biochemical
T1 construct: made in house
T1 sequence (P35790 75-457): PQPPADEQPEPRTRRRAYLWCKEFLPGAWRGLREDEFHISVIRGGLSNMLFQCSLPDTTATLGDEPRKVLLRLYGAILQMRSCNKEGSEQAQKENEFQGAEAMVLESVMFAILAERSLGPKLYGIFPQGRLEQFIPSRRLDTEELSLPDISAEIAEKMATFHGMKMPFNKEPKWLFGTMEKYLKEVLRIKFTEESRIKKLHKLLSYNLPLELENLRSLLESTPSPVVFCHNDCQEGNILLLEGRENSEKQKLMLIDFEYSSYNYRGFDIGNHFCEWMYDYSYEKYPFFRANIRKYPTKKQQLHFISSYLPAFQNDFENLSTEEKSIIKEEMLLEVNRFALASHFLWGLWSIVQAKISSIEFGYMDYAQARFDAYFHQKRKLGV
Experimental: Absorbance of NADH (340 nm) was measured over 30 min using a SpectraMax M5 (Molecular Devices). Initial reaction velocity (ΔA340/Δt) was calculated and plotted as a function of inhibitor concentration in a 2-fold dilution series. IC50 values were obtained by fitting the relative velocities to a dose-response model.

[2] = target: T2, ChoKα protein (Homo sapiens, UniProt P35790); assay: Binding affinity by surface plasmon resonance (SensiQ Pioneer, FastStep)
T2 construct: made in house
T2 sequence (P35790 75-457): as above
Experimental: KD may be measured using surface plasmon resonance (BIAcore®) technology, see, e.g., Panayotou et al, Mol. Cell. […] ChoKα protein was immobilized by standard amine coupling methods on a COOH5 sensor chip installed in a SensiQ Pioneer system. Sensograms were measured using the FastStep™ screen method with an upper concentration of 500 nM. Kinetics and affinity were obtained from fits using a 1:1 binding model.

[3] = test system: cancer cell lines; assay: Cellular Growth Inhibition Assay (CyQuant Cell Proliferation Assay Kit); assay type: cell-based
Experimental: Cellular Growth Inhibition AssayVehicle or compound treated cells were assessed for cell growth after 72 hours of treatment using the CyQuant® Cell Proliferation Assay Kit (Life Technologies, Grand Island, N.Y.). […] Data are shown as mean (±SD) from ≧2 separate experiments.

[4] = test system: phosphocholine levels in MDA-MB-468 cells; assay: Phosphocholine Assay (1H-NMR) in MDA-MB-468 cells; assay type: cell-based; conditions: Homo sapiens, 24 hours of treatment, read-out: IC50 of pCh
Experimental: (§1) 5×10^6 cells of each line were grown in the presence of increasing concentration of the test compound or vehicle (DMSO) for 24 hours, then counted and viability checked by Trypan Blue Exclusion protocol. 5×10^6 viable cells were washed twice in ice cold D-PBS, then solubilized by vortexing for 30 seconds in 6 mL ice cold 100% methanol. 6 mL of chloroform and 6 mL of water were added and the mixture vortexed again. After centrifugation for 10 minutes @ 5,220 rpms, 10 mL of the aqueous phase is removed and lyophilized. The samples were analyzed by ^1H-NMR to determine phosphocholine levels.
Similarly, dose dependent inhibition of phosphocholine levels in MDA-MB-468 cells by the compound provided in Example 45 was determined by ^1H-NMR analysis after 24 hours of treatment with increasing concentrations consisting of 0.1 μM, 1.0 μM, 10 μM, 20 μM, and 80 μM. By this method, the IC50 of pCh was determined to be 3 μM of the compound provided in Example 45.

[5] = test system: phosphocholine levels in MDA-MB-415 cells; assay: Phosphocholine Assay (1H-NMR) in MDA-MB-415 cells; assay type: cell-based; conditions: Homo sapiens, 24 hours of treatment, read-out: IC50 of pCh
Experimental: as §1
Dose dependent inhibition of phosphocholine levels in MDA-MB-415 cells by the compound provided in Example 55 was determined by ^1H-NMR analysis after 24 hours of treatment with increasing concentrations consisting of 0.25 μM, 0.50 μM, 1.0 μM, 2.0 μM, 4.0 μM, 8.0 μM and 16 μM.

[6] = Examples not designated with an asterisk, footnote prints version 1 of the Kinase Assay, read-out: IC50
[7] = SPR, 1:1 binding model, upper concentration 500 nM, read-out: Kd
[8] = 72 hours of treatment, cell line not named, read-out: GI50

Structure (SMILES)	pIC50 [1]	pKd [2]	GI50 ([3]; 72 h)	pIC50 [1, 6]	pKd [2, 7]	GI50 [3, 8]	pIC50 [4]	pIC50 [5]
CN1CCCN(Cc2ccc(-c3ccc(CN4CCCN(C)CC4)cc3)cc2)CC1 [Example 45, 4,4′-bis((4-methyl-1,4-diazepan-1-yl)methyl)-1,1′-biphenyl]	> 6.70	> 4.22	< 5000 nM	–	–	–	5.52	–
Cc1cc(C(=O)N2CCCN(C)CC2)ccc1-c1ccc(CN2CCCN(C)CC2)cc1 [Example 50, (4-methyl-1,4-diazepan-1-yl)(2-methyl-4′-((4-methyl-1,4-diazepan-1-yl)methyl)-[1,1′-biphenyl]-4-yl)methanone]	–	–	–	> 6.70	> 4.22	< 5000 nM	–	–
CN1CCCN(Cc2ccc(-c3ccc(CN4CCCN(C)CC4)cc3C#N)c(F)c2)CC1 [Example 55, 2′-fluoro-4,4′-bis((4-methyl-1,4-diazepan-1-yl)methyl)-[1,1′-biphenyl]-2-carbonitrile]	> 6.70	> 7.00	< 5000 nM	–	–	–	–	6.12
CNS(=O)(=O)c1ccc(-c2ccc(CN3CCCN(C)CC3)cc2C#N)cc1 [Example 86, 2′-cyano-N-methyl-4′-((4-methyl-1,4-diazepan-1-yl)methyl)-[1,1′-biphenyl]-4-sulfonamide]	–	–	–	> 7.00	> 7.30	< 5000 nM	–	–
CN1CCCN(Cc2ccc(-c3ccc(S(N)(=O)=O)cc3)c(C#N)c2)CC1 [Example 87, 2′-cyano-4′-((4-methyl-1,4-diazepan-1-yl)methyl)-[1,1′-biphenyl]-4-sulfonamide]	–	–	–	> 7.00	> 7.00	> 20000 nM	–	–
CN1CCCN(Cc2ccc(-c3ccc4cn[nH]c4c3)c(C#N)c2)CC1 [Example 89, 2-(1H-indazol-6-yl)-5-((4-methyl-1,4-diazepan-1-yl)methyl)benzonitrile]	–	–	–	> 7.00	> 7.30	> 20000 nM	–	–
CN1CCCN(Cc2ccc(-c3ccc4[nH]ncc4c3)c(C#N)c2)CC1 [Example 92, 2-(1H-indazol-5-yl)-5-((4-methyl-1,4-diazepan-1-yl)methyl)benzonitrile]	–	–	–	> 7.00	> 7.30	> 20000 nM	–	–
CN1CCCN(Cc2ccc(-c3ccc(NS(C)(=O)=O)cc3)c(C#N)c2)CC1 [Example 104, N-(2′-cyano-4′-((4-methyl-1,4-diazepan-1-yl)methyl)-[1,1′-biphenyl]-4-yl)methanesulfonamide]	–	–	–	> 7.00	> 7.30	> 20000 nM	–	–

Further lines, results first:

pIC50 [1]	pKd [2]	GI50 ([3]; 72 h)	pIC50 [1, 6]	pKd [2, 7]	GI50 [3, 8]	pIC50 [4]	pIC50 [5]	Structure (SMILES)
> 7.00	> 7.00	< 5000 nM	–	–	–	–	–	CN1CCCN(Cc2ccc(-c3ccc(CN4CCCN(C)CC4)c(F)c3F)cc2)CC1 [Example 41, 4,4′-((2,3-difluoro-[1,1′-biphenyl]-4,4′-diyl)bis(methylene))bis(1-methyl-1,4-diazepane)]
–	–	–	> 6.70	> 6.70	< 5000 nM	–	–	CN1CCCN(Cc2ccc(-c3ccc(CN4CCCN(C)CC4)c(F)c3)cc2)CC1 [Example 42, 4,4′-((3-fluoro-[1,1′-biphenyl]-4,4′-diyl)bis(methylene))bis(1-methyl-1,4-diazepane)]
> 6.70	> 6.70	< 5000 nM	–	–	–	–	–	CN1CCCN(Cc2ccc(-c3ccc(CN4CCCN(C)CC4)c(Cl)c3)cc2)CC1 [Example 43, 4,4′-((3-chloro-[1,1′-biphenyl]-4,4′-diyl)bis(methylene))bis(1-methyl-1,4-diazepane)]
> 6.70	> 6.70	< 5000 nM	–	–	–	–	–	CN1CCCN(Cc2ccc(-c3ccc(CN4CCCN(C)CC4)cc3F)cc2)CC1 [Example 44, 4,4′-((2-fluoro-[1,1′-biphenyl]-4,4′-diyl)bis(methylene))bis(1-methyl-1,4-diazepane)]
–	–	–	> 7.00	> 7.00	< 20000 nM	–	–	CN1CCCN(Cc2ccc(-c3ccc(CN4CCCN(C)CC4)cc3C#N)c(C#N)c2)CC1 [Example 56, 4,4′-bis((4-methyl-1,4-diazepan-1-yl)methyl)-[1,1′-biphenyl]-2,2′-dicarbonitrile]
–	–	–	> 7.00	> 7.30	< 20000 nM	–	–	COc1ccc(-c2cc(C(=O)N3CCCN(C)CC3)ccc2-c2ccc(CN3CCCN(C)CC3)cc2C#N)cc1 [Example 66, 4″-methoxy-4-((4-methyl-1,4-diazepan-1-yl)methyl)-4′-(4-methyl-1,4-diazepane-1-carbonyl)-[1,1′:2′,1″-terphenyl]-2-carbonitrile]
–	–	–	> 7.00	> 7.30	< 20000 nM	–	–	CN1CCCN(Cc2ccc(-c3ccc(C4(NS(C)(=O)=O)CC4)cc3)c(C#N)c2)CC1 [Example 82, N-(1-(2′-cyano-4′-((4-methyl-1,4-diazepan-1-yl)methyl)-[1,1′-biphenyl]-4-yl)cyclopropyl)methanesulfonamide]
–	–	–	> 7.00	> 7.30	> 20000 nM	–	–	CC(=O)NNC(=O)CCc1ccc(-c2ccc(CN3CCCN(C)CC3)cc2C#N)cc1 [Example 83, N′-acetyl-3-(2′-cyano-4′-((4-methyl-1,4-diazepan-1-yl)methyl)-[1,1′-biphenyl]-4-yl)propanehydrazide]
